Calls of active or inactive are those of the source.

Assay [1] addresses T1, Heat shock factor protein 1 (Mus musculus, UniProt P38532).
T1 sequence (P38532 whole entry): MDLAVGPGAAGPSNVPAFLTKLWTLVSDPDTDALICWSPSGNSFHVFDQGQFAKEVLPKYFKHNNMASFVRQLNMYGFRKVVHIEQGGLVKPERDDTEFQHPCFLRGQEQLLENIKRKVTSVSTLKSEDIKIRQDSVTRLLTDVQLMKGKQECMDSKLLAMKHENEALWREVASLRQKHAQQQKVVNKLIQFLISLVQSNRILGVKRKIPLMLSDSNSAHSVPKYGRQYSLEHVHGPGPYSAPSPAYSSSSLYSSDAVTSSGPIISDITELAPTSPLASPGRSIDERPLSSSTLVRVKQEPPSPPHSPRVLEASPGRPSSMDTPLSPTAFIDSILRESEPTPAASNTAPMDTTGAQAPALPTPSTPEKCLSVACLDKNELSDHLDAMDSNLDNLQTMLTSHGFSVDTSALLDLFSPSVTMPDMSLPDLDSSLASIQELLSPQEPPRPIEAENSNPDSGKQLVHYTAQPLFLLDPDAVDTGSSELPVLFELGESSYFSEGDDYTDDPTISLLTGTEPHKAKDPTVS
The assay can be described thus: decrease of HSF1-responsive luciferase luminescence – cell-based, NIH3T3, dose retest, confirmation (AID 2382).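 Further: NIH3T3 fibroblasts with HSF1-driven luciferase reporter stressed by proteasome inhibitor MG132; luminescence from HSF1-driven luciferase expression after 8 hours of MG132 stress.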 Format: functional.

In assay [2] the target is T1, Heat shock factor protein 1. Description: enhancement of HSF1-driven luciferase signal – cell-based, NIH3T3, luminescence, dose retest, confirmation (AID 435004).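 Further: stress induced by proteasome inhibitor MG132 added 30 min after compound; luciferase reporter driven by HSF1 response element in NIH3T3 cells; actives raise luminescence as potentiators of the MG132 stress response.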 Format: functional.
In assay [3] the target is Cytochrome P450 2C19 (Homo sapiens, UniProt P33261). The assay can be described thus: Cytochrome panel assay with activity outcomes. Panel member name: p450-cyp2c19 Compounds with AC50 equal or less than 10 uM are considered active. Format: functional. As to conditions: read-out: AC50.
Chain of Cytochrome P450 2C19 (P33261 whole entry): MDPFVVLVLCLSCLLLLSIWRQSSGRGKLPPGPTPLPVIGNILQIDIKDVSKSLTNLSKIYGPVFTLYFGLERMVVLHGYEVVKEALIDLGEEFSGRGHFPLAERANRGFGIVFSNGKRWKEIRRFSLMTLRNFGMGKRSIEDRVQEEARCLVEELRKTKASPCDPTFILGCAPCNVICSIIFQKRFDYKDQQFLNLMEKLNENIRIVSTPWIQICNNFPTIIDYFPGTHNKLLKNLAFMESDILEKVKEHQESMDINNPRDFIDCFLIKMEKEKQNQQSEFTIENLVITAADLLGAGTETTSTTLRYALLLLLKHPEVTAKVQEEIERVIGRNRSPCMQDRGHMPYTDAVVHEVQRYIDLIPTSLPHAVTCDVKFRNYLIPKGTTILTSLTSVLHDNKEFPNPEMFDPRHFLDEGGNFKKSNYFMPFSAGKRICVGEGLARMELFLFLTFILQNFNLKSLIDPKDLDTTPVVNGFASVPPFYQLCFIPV
In assay [4] the test system is Streptococcus sp. 'group A'. Description: Streptococcus pyogenes SK(-)GAS viability under kanamycin – luminescence, BacTiterGlo, confirmation, counter-screen for streptokinase expression inhibitor project, dose response (AID 1900). The assay is classed as functional, organism-based.
Assay [5] has as its target T2, Streptokinase A (Streptococcus pyogenes serotype M1, UniProt P10520).
T2 sequence (P10520 whole entry): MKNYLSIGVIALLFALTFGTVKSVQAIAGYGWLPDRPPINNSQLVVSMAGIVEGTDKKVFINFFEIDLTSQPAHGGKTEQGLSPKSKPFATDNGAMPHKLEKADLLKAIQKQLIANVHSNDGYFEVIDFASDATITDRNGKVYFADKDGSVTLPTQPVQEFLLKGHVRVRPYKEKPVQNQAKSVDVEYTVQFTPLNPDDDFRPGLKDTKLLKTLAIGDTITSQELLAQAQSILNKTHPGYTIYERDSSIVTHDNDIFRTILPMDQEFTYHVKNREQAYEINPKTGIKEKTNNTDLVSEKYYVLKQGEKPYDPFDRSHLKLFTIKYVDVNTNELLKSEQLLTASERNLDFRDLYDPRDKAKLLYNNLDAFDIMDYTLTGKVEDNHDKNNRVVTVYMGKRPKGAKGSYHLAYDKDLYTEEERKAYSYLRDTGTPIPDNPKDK
The assay can be described thus: viability-normalized secreted streptokinase activity reduction – plasminogen activation absorbance, OD405, dose response (AID 1914).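 Further: secreted streptokinase activity via plasminogen activation per viability signal from cell pellet.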 The assay is classed as functional, Streptococcus pyogenes M1 GAS.

The subject of assay [6] is Streptococcus. The assay can be described thus: GAS UMAA2166 growth inhibition – luminescence, BacTiterGlo, counter-screen for streptokinase expression inhibitor project, dose response (AID 1915).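 Further: potency for reduction of bacterial viability or growth.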 The assay is classed as functional, organism-based.
A short description of assay [7]: Luminescence Cell-Based Dose Confirmation HTS to Identify Activators of 5'UTR Stem-Loop Driven Alpha-Synuclein mRNA Translation in H4 Neuroglioblastoma Cells. [Related pubchem assays: 1829 (Project Summary), 1814 (Primary HTS)]. The assay is classed as functional.
The nature of assay [8]: Luminescence Cell-Based Dose Response HTS to Identify Activators of Luciferase Translation or Activity in H4 […] Cells. [Related pubchem assays: 1829 (Project Summary), 1814 (Primary HTS)]. The assay is classed as functional.
Assay [9] concerns H4. Description: Luminescence Cell-Based Dose Response HTS to Identify Activators of 5'UTR Stem-Loop Driven Prion Protein mRNA Translation in H4 Neuroglioblastoma Cells. [Related pubchem assays: 1829 (Project Summary), 1814 (Primary HTS)]. Format: functional. As to conditions: Homo sapiens.
For assay [10], the target named is T3, Rac GTPase-activating protein 1 (Homo sapiens, UniProt Q9H0H5).
T3 sequence (Q9H0H5 whole entry): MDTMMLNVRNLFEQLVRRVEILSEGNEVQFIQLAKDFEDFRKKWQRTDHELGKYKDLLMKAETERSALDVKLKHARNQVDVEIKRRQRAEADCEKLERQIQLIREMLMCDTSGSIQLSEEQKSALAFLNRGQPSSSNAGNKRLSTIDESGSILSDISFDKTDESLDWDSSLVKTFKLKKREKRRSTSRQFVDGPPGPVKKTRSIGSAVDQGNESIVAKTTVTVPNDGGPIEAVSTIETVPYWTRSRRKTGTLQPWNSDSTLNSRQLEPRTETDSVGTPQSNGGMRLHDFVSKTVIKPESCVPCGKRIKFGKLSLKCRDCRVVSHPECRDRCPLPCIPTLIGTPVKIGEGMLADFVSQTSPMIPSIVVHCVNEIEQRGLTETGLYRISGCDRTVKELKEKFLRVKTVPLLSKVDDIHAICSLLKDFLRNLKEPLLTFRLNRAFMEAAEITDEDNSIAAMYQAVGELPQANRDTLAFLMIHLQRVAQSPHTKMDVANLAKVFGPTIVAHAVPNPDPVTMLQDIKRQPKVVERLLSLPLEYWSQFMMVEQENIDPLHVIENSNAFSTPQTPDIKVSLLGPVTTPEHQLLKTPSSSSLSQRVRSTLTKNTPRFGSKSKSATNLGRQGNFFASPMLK
Description: blockers of MgcRacGAP-driven Rac1 GTP hydrolysis – biochemical, ADP Hunter fluorescence, primary and confirmatory, confirmation (AID 624330). Format: functional.

With `C=CCn1/c(=N/C(=O)C2CC2)sc2cc(NC(C)=O)ccc21`, the EC50 in assay [1] is reported as > 195 µM (not active).

Take `O=C(CNC(=O)c1ccco1)Nc1ccc2c(c1)OCCO2`: in [1], the EC50 is 0.274 µM (active).

On to `COc1ccc(S(=O)(=O)Nc2ccncc2)c(C)c1C`, for which the EC50 in [2] is > 260 µM (inactive).

Regarding `O=c1c2cccnc2n(-c2ccccc2)n1Cc1c(Cl)cccc1Cl`, the EC50 in assay [1] was > 195 µM (not active).

Turning to `COc1ccc(-c2oc3ccccc3c2C(=O)Oc2ccccc2)cc1`, in [1], the EC50 is 152 µM (active).

For `O=[N+]([O-])c1ccc(N2CCNCC2)cc1NCC1CCCO1` (stereo unspecified), the concentration giving a half-maximal response (EC50) in assay [1] is > 195 µM (not active). In addition, the AC50 in [3] was 39.8 µM (inconclusive).

Turning to `CCCCCCCN1N=C(C)C(C(=O)c2ccccc2)C1=O` (stereo unspecified), the EC50 is 2.89 µM (active) in [4], > 150 µM (not active) in [5] and 30.9 µM (active) in [6].

For the molecule `COc1ccc(NC(=O)CSc2nnc3ccc(-c4ccncc4)nn23)cc1OC`, the EC50 in assay [1] is listed as > 195 µM (not active).

For `Cc1sc2nc(C3CC3)nc(SCC(=O)N3CCc4ccccc4C3)c2c1C`, the 50% effective concentration (EC50) in [2] was 28.6 µM (active).

For `CC(C)C[C@H](NC(=O)c1[nH]cnc1C(=O)N[C@@H](C)C(=O)OC(C)(C)C)C(=O)OCc1ccccc1`, the EC50 is 8.12 µM (active) in [4], > 150 µM (not active) in [5] and 40.9 µM (active) in assay [6].

Take `CN(CC1CCCO1)S(=O)(=O)c1ccc(C(=O)Nc2ccccc2F)cc1` (stereo unspecified): the EC50 in [4], in assay [5] and in [6] was > 150 µM (not active) each time.

Turning to `CC(=O)Oc1ccc(Cn2cnc3cc4ccccc4cc32)cc1`, the EC50 in assay [2] was 44.4 µM (active).

For the molecule `c1ccc(-c2nc(C3CCCCC3)c3ccccc3n2)cc1`, the EC50 is 3.71 µM (active) in [4], 21.6 µM (active) in assay [5] and 25.2 µM (active) in assay [6].

As to `CN(C)c1ccc(/C=C2/C(=N\O)C3CCN2CC3)cc1`, the EC50 is 26 µM (active) in [7], 6.23 µM (active) in assay [8] and 28.8 µM (inconclusive) in assay [9]. The IC50 in assay [10] was 75.5 µM (active).

Consider `O=C(CSc1nnc(-c2c[nH]c3ccccc23)o1)c1ccccc1`, for which the EC50 in [2] is > 260 µM (inactive).

With `N#Cc1cc(-c2ccccc2)cnc1Sc1ccccc1`, the EC50 in [2] is > 260 µM (inactive).

`Cc1ccc(NC(=O)NC2=N/C(=C(/C#N)C(=O)N3CCCC3)c3ccccc32)cc1`: the EC50 in assay [1] was > 195 µM (not active).

Take `Cc1c(Cl)cccc1NC(=O)c1cccc(OC(F)F)c1`: the EC50 in assay [1] is > 195 µM (not active).

For `O=C(Nc1ccc(F)c(Cl)c1)Nc1csc2ccccc12`, the values for the EC50 in assay [4], in assay [5] and in assay [6] were 6.52 µM (active), > 50 µM (not active) and 5.69 µM (active), respectively.

Take `O=C(c1ccccc1)c1ccc(OCC(O)CN2CCCC2)cc1` (stereo unspecified): the EC50 in assay [1] is recorded as > 195 µM (not active).

Consider `CCOC(=O)c1c(C)nc2c(C)cccn12`, for which the half-maximal effective concentration (EC50) in assay [1] was > 195 µM (not active).

As for `COc1ccccc1N1CC(C(=O)Nc2nnc(SCC(=O)N3CCCC3)s2)CC1=O` (stereo unspecified), the concentration for a half-maximal effect (EC50) in assay [4], in [5] and in [6] was > 150 µM (not active) throughout.

Regarding `O=[N+]([O-])c1ccc(NCCOc2ccccc2Cl)nc1`, the concentration for a half-maximal effect (EC50) in assay [1] is given as > 195 µM (not active).

As for `Cc1cc(C)cc(OCC(O)CN2CCN(C(=O)c3ccco3)CC2)c1` (stereo unspecified), in assay [1], the concentration giving a half-maximal response (EC50) is given as > 195 µM (not active).

As for `COc1ccccc1-c1[nH]nc2c1[C@H](C)CC[C@H]2C(C)C`, the figures for the concentration giving a half-maximal response (EC50) in assay [4], in assay [5] and in assay [6] were 10.9 µM (active), > 150 µM (not active) and > 150 µM (not active), respectively.

Turning to `COc1ccc(C2/C=C\CN(C(=O)c3ccccc3)CC(=O)N2Cc2ccc(F)cc2)cc1` (stereo unspecified), the EC50 in assay [4], in assay [5] and in assay [6] was > 150 µM (not active) in each case.
